These results are taken from US20080070972A1, “Controlled release formulations” (priority 2006, published 2008).

The nature of data set [1]: Bulk, granule and pellet density measurement. Format: physicochemical. The text has this: (§1) The increase in density of the granulated material relative to the non-granulated material results in improved flow characteristics which facilitate easier handling during manufacturing processes such as formulation. Bulk and granulated densities can be measured with a measuring cylinder. The values for the bulk (ρb) and tap (ρt) densities can be used to calculate index of compressibility (% Compressibility), which is indicative of the flow properties of the material. The % Compressibility can be calculated by the following formula: % Compressibility=[(ρt−−ρb)/ρt-]×100%. See, e.g., The theory and practice of industrial pharmacy, by L. Lachman, H. Lieberman, and J. Kanig, in Varghese Publishing House, 3rd Indian Edition, (Hind Rajasthan Bldng, Dadar Bombay 400 014), 1987, p. 184. Also, flowability of the material can be determined by Flodex analysis. The Flodex Test Apparatus is ideal for determining the intrinsic flowability of powders (which is recommended for quality control of powders). The Flodex instrument includes a complete set of index flow disks with opening of different diameter. A tested powder is allowed to flow through the opening. […] See, e.g., Composite Method to Quantify Powder Flow as a Screening Method in Early Tablet or Capsule Formulation Development, by Michael K. Taylor, Jeri Ginsburg, Anthony Hickey, and Ferdous Gheyas, in AAPS PharmSciTech, 2000, 1(3): article 18.

Data set [2] in a line: Flowability of the bulk material. The following applies: 500 μm sieved bulk non-granulated material. The class given is physicochemical.
Source text: as §1

Data set [3] can be described thus: Regional absorption studies. The following applies: in vivo.

With `CCO[C@@H]1OC(=O)C[C@@H]1NC(=O)[C@@H]1CCCN1C(=O)[C@@H](NC(=O)c1ccc(N)c(Cl)c1)C(C)(C)C` [compound of Formula (I)], in data set [1] (500 μm sieved bulk non-granulated material), the “density of the bulk material” value is “around 0.24 g/cm^3”. In addition, the “density of the natural form” value in data set [1] (natural (non-granulated) form) was “about 0.2 g/cm^3”. Further, the flowability entry in data set [2] is recorded as “very poor flowability”. The regional absorption result in data set [3] was “colonic absorption”.
